Laboratory results: patent US10717711B2, “Amino quinazolines as kinase inhibitors” (GlaxoSmithKline Intellectual Property Development Limited, priority 2011, dated 2020)
Where “and” joins values, the source holds several entries; their conditions need not be identical. Identical values can stand only once.

Biological target: T1, RIPK2 (full length FLAG His tagged RIPK2; RIP2 kinase) (Homo sapiens, UniProt O43353)
T1 construct: Full length FLAG His tagged RIPK2 was purified from a Baculovirus expression system; FLAG (N); 6His (N); made in house; host or cells: Spodoptera frugiperda (Sf9) insect cells, baculovirus
Experiment: Fluorescent polarization based binding assay at the ATP binding pocket of RIPK2
Settings: competition with fluorescently labeled ATP competitive ligand (5 nM); mean of a minimum of 2 experiments; approximate values; read-out: mean pIC50 (RIP2 kinase inhibition) (converted)
Text: A fluorescent polarization based binding assay was developed to quantitate interaction of novel test compounds at the ATP binding pocket of RIPK2, by competition with a fluorescently labeled ATP competitive ligand. Full length FLAG His tagged RIPK2 was purified from a Baculovirus expression system and was used at a final assay concentration of twice the KDapparent. A fluorescent labeled ligand (5-({[2-({[3-({4-[(5-hydroxy-2-methylphenyl)amino]-2-pyrimidinyl}amino)phenyl]carbonyl}amino)ethyl] amino}carbonyl)-2-(6-hydroxy-3-oxo-3H-xanthen-9-yl)benzoic acid, prepared as described in WO2011/120025) was used at a final assay concentration of 5 nM. Both the enzyme and ligand were prepared in solutions in 50 mM HEPES pH7.5, 150 mM NaCl, 10 mM MgCl2, 1 mM DTT, and 1 mM CHAPS. Test compounds were prepared in 100% DMSO and 100 nL was dispensed to individual wells of a multiwell plate. Next, 5 ul RIPK2 was added to the test compounds at twice the final assay concentration, and incubated at rt for 10 min. Following the incubation, 5 ul of the fluorescent labeled ligand solution, was added to each reaction, at twice the final assay concentration, and incubated at rt for at least 10 min. Finally, samples were read on an instrument capable of measuring fluorescent polarization. Test compound inhibition was expressed as percent (%) inhibition of internal assay controls.
For concentration/dose response experiments, normalized data were fit and pIC50S determined using conventional techniques. The pIC50S are averaged to determine a mean value, for a minimum of 2 experiments.
Full-length human RIPK2 (receptor-interacting serine-threonine kinase 2) cDNA was purchased from Invitrogen (Carlsbad, Calif., USA, Clone ID:IOH6368, RIPK2-pENTR 221). Gateway® LR cloning was used to site-specifically recombine RIPK2 downstream to an N-terminal FLAG-6His contained within the destination vector pDEST8-FLAG-His6 according to the protocol described by Invitrogen. Transfection into Spodoptera frugiperda (Sf9) insect cells was performed using Cellfectin® (Invitrogen), according to the manufacturer's protocol.
Sf9 cells were grown in Excell 420 (SAFC Biosciences, Lenexa, Kans., US; Andover, Hampshire UK) growth media at 27° C., 80 rpm in shake flask until of a sufficient volume to inoculate a bioreactor. […] The insect cells were infected with Baculovirus at a multiplicity of infection (MOI) of 12.7. The cultivation was continued for a 43 hour expression phase. The infected cells were removed from the growth media by centrifugation at 2500 g using a Viafuge (Carr) continuous centrifuge at a flow rate of 80 litres/hour. The cell pellet was immediately frozen and subsequently supplied for purification.
Purification Procedure I: 9.83×10^10 Insect cells were re-suspended in 1.4 L lysis buffer (50 mM Tris (pH 8.0), 150 mM NaCl, 0.5 mM NaF, 0.1% Triton X-100, 1 mL/litre Protease Inhibitor Cocktail Set III (available from EMD Group; CalBiochem/Merck Biosciences, Gibbstown, N.J., US; Damstadt, Germany) and processed by dounce homogenization on ice. The suspension was then clarified by centrifugation at 47,900 g for 2 h, at 4° C. The lysate was decanted from the insoluble pellet and loaded at a linear flow rate of 16 cm/h onto a 55 mL FLAG-M2 affinity column (2.6×10.4 cm) that had been pre-equilibrated with 10 column volumes buffer A (50 mM Tris (pH 8.0), 150 mM NaCl, 0.5 mM NaF, 1 mL/litre Protease Inhibitor Cocktail Set III). […]

T1 sequence (O43353 whole entry): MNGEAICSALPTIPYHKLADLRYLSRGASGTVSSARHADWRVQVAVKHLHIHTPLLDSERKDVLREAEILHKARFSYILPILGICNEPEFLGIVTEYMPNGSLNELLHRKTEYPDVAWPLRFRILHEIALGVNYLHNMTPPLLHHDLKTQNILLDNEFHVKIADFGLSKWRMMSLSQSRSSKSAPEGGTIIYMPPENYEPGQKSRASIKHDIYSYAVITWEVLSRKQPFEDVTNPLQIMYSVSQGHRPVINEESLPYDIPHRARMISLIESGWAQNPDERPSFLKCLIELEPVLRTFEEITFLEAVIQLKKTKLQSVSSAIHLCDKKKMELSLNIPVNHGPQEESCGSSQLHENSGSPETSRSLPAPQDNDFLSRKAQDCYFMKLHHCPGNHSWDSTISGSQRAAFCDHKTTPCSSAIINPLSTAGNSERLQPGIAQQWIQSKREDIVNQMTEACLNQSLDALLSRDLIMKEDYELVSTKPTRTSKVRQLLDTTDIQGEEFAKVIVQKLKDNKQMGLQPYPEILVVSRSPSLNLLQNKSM

CC(C)(C)S(=O)(=O)c1ccc2ncnc(Nc3ccc4scnc4c3)c2c1 [Example 4, N-1,3-benzothiazol-5-yl-6-[(1,1-dimethylethyl)sulfonyl]-4-quinazolinamine]
IC50: ~31.6 nM and 1 to 100 nM

CC(C)(C)S(=O)(=O)c1cc2c(Nc3ccc4scnc4c3)ncnc2cc1OCCO [Example 21, 2-((4-(benzo[d]thiazol-5-ylamino)-6-(tert-butylsulfonyl)quinazolin-7-yl)oxy)ethanol]
IC50: 1 to 100 nM

COc1cc2ncnc(Nc3ccc4scnc4c3)c2cc1S(=O)(=O)C(C)(C)C [Example 16, N-(6-(tert-butylsulfonyl)-7-methoxyquinazolin-4-yl)benzo[d]thiazol-5-amine]
IC50: ~3.16 nM and 1 to 100 nM

CC(C)(C)S(=O)(=O)c1cc2c(Nc3ccc4scnc4c3)ncnc2cc1OCC(F)(F)F [Example 23, N-(6-(tert-butylsulfonyl)-7-(2,2,2-trifluoroethoxy)quinazolin-4-yl)benzo[d]thiazol-5-amine]
IC50: 1 to 100 nM

CC(C)S(=O)(=O)c1ccc2ncnc(Nc3ccc4scnc4c3)c2c1 [Example 6, N-1,3-benzothiazol-5-yl-6-[(1-methylethyl)sulfonyl]-4-quinazolinamine]
IC50: 1 to 100 nM
